“And” between values parts separate entries of the source, which are not always exact repeats. Identical values can stand only once.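 Step 1: Grow cells in 96-well plates. Step 2: Expose to compound for 48 hours at 5 concentrations. Step 3: Interpolate endpoints linearly; if unreached, use highest concentration. At the GI50, growth is halved. TGI: total growth inhibition.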
Legend:
Experiment in all cases: DTP human tumour cell line panel, 48 h
MDA-MB-231 breast = test system: MDA-MB-231 breast
MCF7 breast = test system: MCF7 breast
MDA-MB-435 = test system: MDA-MB-435
T-47D breast = test system: T-47D breast
DU-145 prostate = test system: DU-145 prostate
XF 498 CNS = test system: XF 498 CNS
MDA-N = test system: MDA-N
M19-MEL melanoma = test system: M19-MEL melanoma

| SMILES | GI50 (MDA-MB-231 breast) | TGI (MDA-MB-231 breast) | GI50 (MCF7 breast) | TGI (MCF7 breast) | GI50 (MDA-MB-435) | TGI (MDA-MB-435) | GI50 (T-47D breast) | TGI (T-47D breast) | GI50 (DU-145 prostate) | TGI (DU-145 prostate) | TGI (XF 498 CNS) [µM] | GI50 (MDA-N) | TGI (MDA-N) [µM] | TGI (M19-MEL melanoma) [µM] |
| --- | --- | --- | --- | --- | --- | --- | --- | --- | --- | --- | --- | --- | --- | --- |
| Cc1cc(N2CCCC2)nc(N(CCCNc2ccnc3cc(Cl)ccc23)Cc2ccc3c(c2)OCO3)n1 | 0.681 µM | 3.42 µM | 1.17 µM | 4.98 µM | 1.26 µM | 2.56 µM | 1.42 µM | 4.66 µM |  |  |  |  |  |  |
| Nc1nc(Nc2cccc(F)c2)nc2ccccc12 | 13.8 µM | 34.2 µM | 15.6 µM | > 100 µM | 16.8 µM | 36.6 µM | 15.6 µM | 63 µM | 37.3 µM | > 100 µM |  |  |  |  |
| N#CC1C(N)=NNC12Nc1ccccc1N2 (centres undefined) | 3.04 µM | 40.6 µM |  |  | 14.1 µM | 63.7 µM | 50.3 µM | > 100 µM | 10.8 µM | > 100 µM |  |  |  |  |
| CC(C)[C@@H](COC(C)(C)C)N=CN1CCc2c([nH]c3ccccc23)C1 |  |  |  |  |  |  |  |  |  |  | > 100 |  |  |  |
| CC(=O)OC1C2(CC3N4C(=O)C5(CO)SSC4(CC31O)C(=O)N5C)OC(C)C(C)(C)C2=O (centres undefined) | < 0.01 µM | 0.0558 µM | < 0.0139 µM | 0.403 µM | 1.94 µM | 3.75 µM | < 0.01 µM | 0.0782 µM |  | 0.267 µM |  |  |  |  |
| CC(C)OC(=O)c1ccc2[nH]c(O)c(C(=Nc3ccc(N(C)C(=O)CN4CCN(C)CC4)cc3)c3ccccc3)c2c1 | 0.16 µM | 0.715 µM | 0.485 µM | 2.07 µM | 1.07 µM | 2.3 µM | 1.2 µM | 3.6 µM | 0.408 µM | 1.63 µM |  |  |  |  |
| Cc1ccc2c(c1)ncn2-c1ncnc2c1CC(C)c1ccccc1N2C (centres undefined) | 0.192 µM | 16.6 µM | 0.0368 µM | 12.5 µM |  |  | 2.17 µM | 8.53 µM | 0.244 µM | 15.6 µM |  |  |  |  |
| CCCCCc1c(C)[nH]c(/C=C2\N=C(c3ccc[nH]3)C=C2Oc2ccc(Cl)cc2)c1C | 0.0269 µM and < 0.01 µM | 0.0798 µM and 0.157 µM | 0.0578 µM and 0.0238 µM | 2.15 µM and 3.57 µM | 0.0587 µM and 0.0352 µM | 0.334 µM and 0.385 µM | 0.0709 µM and 0.0329 µM | 2.06 µM and 6.01 µM | 0.0837 µM and 0.0201 µM | 3.04 µM and 2.91 µM |  |  |  |  |
| CCCCC[C@H]1C/C=C2/C(=O)C(Cl)=C[C@@H]2C/C=C\CCCC(=O)O[C@@H](CCCCC)C/C=C2/C(=O)C(Cl)=C[C@@H]2C/C=C\CCCC(=O)O1 | 0.372 µM | 0.995 µM | 0.155 µM | 1.93 µM | 0.344 µM | 0.793 µM | 0.39 µM | 1.18 µM | 0.494 µM | 1.74 µM |  |  |  |  |
| S=c1ssc(Sc2ccccn2)c1Cl | 12 µM | 24.4 µM |  |  | 16.8 µM | 31.5 µM | 17 µM | 34.6 µM | 6.52 µM | 20.2 µM |  |  |  |  |
| Cn1cc(-c2ccc3c(c2)CCN3C(=O)Cc2cccc(C(F)(F)F)c2)c2c(N)ncnc21 | 4.69 µM | 21.9 µM | 4.5 µM | 18.4 µM | 4.46 µM | 21.2 µM | 3.32 µM | 20.2 µM | 2.5 µM | 19.5 µM |  |  |  |  |
| CCc1c2c(nc3cccc(N)c13)-c1cc3c(c(=O)n1C2)COC(=O)[C@]3(O)CC | 0.053 µM | > 100 µM | < 0.001 µM | 0.0101 µM | 0.0349 µM | 1.54 µM |  | > 100 µM | 0.00161 µM | > 100 µM |  | 0.0915 µM and 0.704 µM | > 100 |  |
| CCc1c[nH]c2ncnc(N3CC[C@@](N)(CNC(=O)c4ccc(F)cc4F)C3)c12 | 35.6 µM | > 100 µM | 26.6 µM | > 100 µM | 33.5 µM | > 100 µM | 30.8 µM | > 100 µM | 42.2 µM | > 100 µM |  |  |  |  |
| CC(CCCOC(c1ccccc1)(c1ccccc1)c1ccccc1)OC(=O)Nc1cc([N+](=O)[O-])cc([N+](=O)[O-])c1 (centres undefined) |  |  |  |  |  |  |  |  |  |  |  |  |  | > 100 |
| COc1cc(/C=C(/c2ccccc2)[N+](=O)[O-])c(OC)c2c1OCO2 | 1.7 µM | 3.33 µM |  |  | 1.5 µM | 3.08 µM | 1.21 µM | 5.57 µM | 1.64 µM | 3.02 µM |  |  |  |  |
| O=c1oc2ccc(Cl)cc2c(=O)n1-c1ccc(I)cc1F | 0.25 µM | 3.57 µM | 0.258 µM | > 23.9 µM | 0.271 µM | 3.86 µM | 0.152 µM | 1.11 µM | 0.436 µM | > 49.5 µM |  |  |  |  |
| COC(=O)[C@]1(C)CCC[C@@]2(C)C1CCC1=C[C@@]3(C(C)C)CC[C@]12OO3 (some centres undefined) |  |  |  |  |  |  |  |  |  |  |  |  |  | 65.7 |
| COc1ccc(-c2ccc(/C=N/n3c(COc4ccc(Cl)cc4)n[nH]c3=S)o2)c([N+](=O)[O-])c1 | 14.2 µM | 48.5 µM | 16.9 µM | 56.9 µM | 25.9 µM | > 100 µM | 9.57 µM | 82.4 µM |  |  |  |  |  |  |
| Cn1cc(-c2ccc(CNc3cc(-c4cnc5cc(OCCCN6CCCC6)ccn45)ncn3)cc2)cn1 | 1.91 µM | 3.56 µM | 2.45 µM | 10.4 µM | 1.71 µM | 3.19 µM | 18.7 µM | 43.1 µM | 15.1 µM | 31.5 µM |  |  |  |  |
| Cc1cn2c(/C=N/N/C(N)=N\N)c(-c3ccc(Cl)c([N+](=O)[O-])c3)nc2s1 | 0.791 µM | 1.87 µM | 1.56 µM | > 50 µM | 1.05 µM | 2.22 µM | 0.878 µM | 2.48 µM | 1.12 µM | 3.65 µM |  |  |  |  |
| C[C@H](CS(C)(=O)=O)Nc1ncc2cc(Oc3ccc(F)cc3F)c(=O)n(C)c2n1 | > 25 µM | > 25 µM | > 25 µM | > 25 µM | > 25 µM | > 25 µM | > 25 µM | > 25 µM | > 25 µM | > 25 µM |  |  |  |  |
| O=C(Nc1ccc2c(c1)oc(=O)c1ccccc12)C(Cl)Cl |  | > 100 µM |  | > 100 µM |  | > 100 µM |  | > 100 µM |  | > 100 µM |  |  | > 100 |  |
| C[C@H](CSC(=O)c1ccccc1)C(=O)N1c2ccccc2C[C@H]1C(=O)O |  | > 100 µM |  | > 100 µM |  |  |  | > 100 µM |  | > 100 µM |  |  | > 100 |  |
| Cc1cccc(C)c1NC(=O)CCCC(=O)C1CCC/C1=N\NC(=O)C(=O)NN (centres undefined) |  |  |  |  |  |  |  |  |  |  | > 100 |  |  |  |
| CC(C)=CC(=O)CC(=O)C(=O)Nc1ccc(Cl)c(Cl)c1 |  |  |  |  |  |  |  |  |  |  |  |  |  | > 100 |

Reference: PubChem BioAssay (NCI)
